The source of these data is paper PMC6058731, “Dual-targeting for brain-specific drug delivery: synthesis and biological evaluation” (Drug Delivery, 2018).

Molecules are shown by their SMILES.

In data set [1] the test system is cerebral ischemia model induced by bilateral common carotid artery occlusion. Kind of data set: Brain ischemia model, SOD, MDA and GSH in brain homogenate. Type of data set: in vivo, Wistar rats. The conditions noted are these: rat brain homogenate, 1 mg/kg (calculated as ibuprofen) tail vein; for MDA level: relative to sham group.
For data set [2], the system named is PC12 cells. Kind of data set: Neuroprotective effect against H2O2-induced cytotoxicity, MTT cell viability. Type of data set: cell-based. The settings on record: Rattus norvegicus, PC-12, 10 μM pretreatment 4 h, then H2O2 (1 μM) 2 h, read-out: Cell viability (survival rate compared to control). On the procedure: (§1) The in vitro neurotoxicity model was established using H2O2 to induce oxidative stress and injury in PC12 cells.
Briefly, PC12 cells were seeded in 96-well plates at the density of 6 × 10^4 cell/well and incubated at 37 °C for 24 h. […] After the treatment, the cells were observed under inverted phase contrast microscopy and cell images were recorded. Subsequently, the cells viability was assessed by MTT assay using a microplate reader.

Data set [3] deals with cerebral ischemia model induced by bilateral common carotid artery occlusion. Kind of data set: Brain ischemia model, TTC staining of brain sections. Type of data set: in vivo, Wistar rats. The conditions noted are these: rats, 1 mg/kg (calculated as ibuprofen) tail vein, 30 min before 1.5 h ligation.
Data set [4] is described as follows: Distribution in brain in mice, brain homogenate. In kind it is in vivo, Kunming mice. The settings on record: for AUC(0–t): brain homogenate, ibuprofen after hydrolysis of sample, 10 mg/kg (calculated as ibuprofen) tail vein.
Description: Kunming mice weighing 20–22 g were purchased from DOSSY Experimental Animal Center of Chengdu (Sichuan, China). All animal procedures for this study were approved by the Experiment Animal Administrative Committee of Sichuan University (P.R. China).
At appropriate time interval (5, 10, 15, 30, 45, 60, 90, 120, 240 and 480 min), blood was collected from the eye socket of mouse into a tube containing heparin, and centrifuged at 5000 rpm for 5 min. The supernatant was collected as plasma sample. The animals were killed by cervical dislocation, and the brain tissue was removed, and then washed with saline for three times to remove the remained blood and rolled over on the filter paper to remove the main vessel. All the brain tissues were homogenized with twice amount of saline. An aliquot of 10 μl of internal standard (naproxen, 30 μg/ml) was added into 200 μl plasma or 200 μl brain homogenate, the mixture was vortexed with 200 μl methanol for 5 min. Then, an aliquot of 50 μl of 6 M NaOH aqueous solution was added to the spiking mixture. […] Followed by vortexing for 5 min, 0.6 ml acetonitrile was added and the mixture was centrifuged at 15,000 rpm for 10 min. The separated supernatant was evaporated to dryness at 40 °C under air flow. The residues were redissolved in 50 μl methanol and centrifuged at 15,000 rpm for 10 min, and then 20 μl of the supernatant was injected into the HPLC system for analysis.
The area under the curve (AUC0–t) and the maximal concentration (Cmax) were calculated by Data and Statistics (DAS, Shanghai, China). The statistical analysis of the samples was performed by using a Student’s t-test with p values < .05 as the minimal level of significance. The relative uptake efficiency (RE) and concentration efficiency (CE) were calculated to evaluate the brain-targeting property of prodrugs. The values of REbrain and CEbrain are defined as follows: RE = (AUC 0) Pro/(AUC 0) Ibu, CE=(Cmax)Pro/(Cmax)Ibu.
The nature of data set [5]: In vitro chemical stability in phosphate buffers. Type of data set: physicochemical. The settings on record: 37 °C. On the procedure:
The in vitro chemical stability of prodrugs was investigated by incubating the prodrugs in pH 2.5, 5.0, 7.4 and 8.0 phosphate buffers, respectively. Briefly, 1 ml of the prodrugs methanol solution (250 μg/ml) was added into 4 ml different buffer separately. The entire system was kept at 37 ± 0.5 °C with continuous shaking at 100 rpm/min. 200 μl medium samples were taken at the following time points: 0, 0.5, 1, 2, 3, 6, 12, and 24 h, and then replaced by fresh medium. The samples were analyzed by HPLC (Shimadzu). The analysis was accomplished on a SinoChrom ODS-C18 column (Dalian, China) (200 × 4.6 mm, […]), thermostated at 35 °C. The mobile phase was composed of methanol/water (73:27), and the pH was adjusted to 2.86 with 10% phosphoric acid. The UV […] was 225 nm and the flow rate was set at 1.0 ml/min with a 20 μl injection volume.
These solutions were maintained at 37 °C, and the aliquots were withdrawn in predetermined time intervals, then the concentrations of the prodrugs were determined by HPLC method.

The test system of data set [6] is PC12 cells. Kind of data set: SOD activity after H2O2 in vitro (colorimetry kit). The conditions noted are these: 10 μM pretreatment 4 h, then H2O2 (1 μM) 2 h. In kind it is cell-based. On the procedure: as §1
The ROS assay kit (S0033; Beyotime Institute of Biotechnology, Jiangsu, China) in DCFH-DA method was used to determine the intracellular ROS generation. PC12 cells were seeded in six-well plates at a density of 5 × 10^5 cells/well and incubated at 37 °C for 24 h. […] Then trypsin–EDTA was used to harvest the cells, which were washed three times with PBS afterward, and finally stained with 2′,7′-dichlorofluorescein diacetate (DCFH-DA, 10 μM) and incubated for 20 min at 37 °C in the dark. After centrifugation (2000 rpm, 3 min), the cell pellet was washed three times with PBS, resuspended in PBS before flow cytometer analysis (Ex 488 nm and Em 525 nm). SOD is an index of superoxide level which neutralizes free oxygen radicals, usually being tested along with ROS level showing oxidative stress. In brief, after harvesting, the cells were resuspended in PBS and lysed by Ultrasonic cell grinder (SCIENTZ-II D, Zhejiang, China) to obtain the cell lysis solution. Then, the SOD activity was evaluated using colorimetry kits (A001; Nanjing Jiancheng Bioengineering Institute, Nanjing, China). Untreated cells were used as the control.

Data set [7] in a line: Metabolic stability in mice brain homogenate. Type of data set: in vitro ADME. The conditions noted are these: 37 °C. The procedure: (§2) The preliminary metabolic stability of prodrugs was studied by incubating in plasma and brain homogenate, respectively. 1 ml of the prodrugs methanol solution (250 μM) was added into 4 ml plasma or brain homogenate. Then, the entire system was kept at 37 ± 0.5 °C with continuous shaking at 100 rpm/min. 200 μl samples were taken at the following time points: 0, 0.5, 1, 2, 3, 6, 12, and 24 h, and then replaced by plasma or brain homogenate. The internal standard (naproxen, 10 μl, 30 μg/ml) was added to each sample followed by 200 μl acetonitrile.
(§3) The metabolic stability of the prodrugs was studied in the mice plasma and brain homogenate at 37 °C. The Kdisapp and t1/2 of the prodrugs in plasma and brain homogenate were calculated by linear regression of the peak area against time (Table 2).

Data set [8] can be described thus: Metabolic stability in mice plasma. The conditions noted are these: 37 °C. Type of data set: in vitro ADME. On the procedure: as §2, §3
[9] abbreviates: brain, analyte ibuprofen (dosed or released), before hydrolysis, 10 mg/kg tail vein.
The mark [10] stands for this setting: Kunming, mouse, iv, brain, analyte intact prodrug, before hydrolysis, 10 mg/kg tail vein.

Usually viability stands for the share of living cells, or the viability signal relative to a control. For `CC(C)Cc1ccc(C(C)C(=O)O)cc1` (centres unmarked) [Ibuprofen, reference compound], in data set [1], the SOD activity result was “did not obviously reverse the decrease of SOD activity” and the MDA level was 192.42%. In data set [2], the viability at 10 µM was determined as 74.1%. Besides, the “TTC red-staining rate compared with the sham group” value in data set [3] is on record as 48.09%. For the same molecule, the “AUC(0–t)” value in data set [4] is 2782.42 ± 176.55 µg·min/g. In data set [4] (setting [9]), the “AUC(0-t)” value was found to be 2782.42 ± 176.55 µg·min/g.
The term half-life denotes the time in which the quantity being followed falls by half. A lower half-life goes with fast loss. As usually defined, the Cmax is the maximum level reached in the sampled fluid or tissue. Broadly, the MRT is a mean duration of stay, worked out from the concentration-time curve. A word on the Tmax: it is the time from dosing to the highest level. Turning to `CC(C)Cc1ccc(C(C)C(=O)OC(COC(=O)CCC(=O)OCC2OC(O)C(O)C(O)C2O)C2OC(=O)C(O)=C2O)cc1` (centres unmarked) [Glu-Vc-Ibu], the Kdisapp in data set [5] (pH 2.5 phosphate buffer) worked out at 1.07e-05 s⁻¹; in data set [5] (pH 5.0 phosphate buffer), 3.86e-06 s⁻¹; in data set [5] (pH 7.4 phosphate buffer), 1.5e-05 s⁻¹; in data set [5] (pH 8.0 phosphate buffer), 1.74e-05 s⁻¹; in data set [7], 0.000542 s⁻¹; in data set [8], 0.000187 s⁻¹. Further, the half-life at 50 μg/ml is 18.1 h in data set [5] (pH 2.5 phosphate buffer), 49.9 h in data set [5] (pH 5.0 phosphate buffer), 12.8 h in data set [5] (pH 7.4 phosphate buffer) and 11.1 h in data set [5] (pH 8.0 phosphate buffer). For the same molecule, the values for the SOD activity entry in data set [6] and in data set [1] were “markedly relieved the damage compared with others” and “significant raise compared with saline group or ibuprofen group”, respectively. Further, the MDA level in data set [1] was 110.96%. The values for the half-life at 50 μM in data set [7] (mouse) and in data set [8] (mouse) were 0.355 h and 1.03 h, respectively. For the same molecule, in data set [2], the viability at 10 µM was 89.9%. In addition, the “TTC red-staining rate compared with the sham group” value in data set [3] is given as 87.95%. Further, the Cmax in data set [4] (setting [10]) was 26400 ± 1970 ng/g. Further, the MRT in data set [4] (setting [10]) was 2.73 h. Besides, the Tmax in data set [4] (setting [10]) was 0.25 h. Besides, the “AUC(0–t)” value in data set [4] was 7308.11 ± 447.86 µg·min/g. Besides, the “AUC(0-t)” value in data set [4] (setting [9]) turned out to be 3393.98 ± 257.39 µg·min/g; in data set [4] (brain, analyte intact prodrug, before hydrolysis, 10 mg/kg tail vein), 3459.18 ± 223.76 µg·min/g.
